Experiment [1] deals with SW48 colorectal cancer cells. Nature of the experiment: 2D antiproliferation on MSI-H SW48 cells, CTG, 5 days. The experiment is classed as cell-based. As to conditions: Homo sapiens, 120 h; SW48 MSI-H, 5 days. The method, then: The molecules of the present disclosure were tested for their anti-proliferative activity on MSI-H tumor cells.
SW48 colorectal cancer cells with MSI were cultured in a RMI1640 medium containing 10% FBS and 1% penicillin-streptomycin, and the mixture was cultured in a 37° C., 5% CO2 incubator. 40 μL of cell suspension was added to each well of a 384-well microplate. […] of compounds with different concentrations were added to each well using Echo, and the mixtures were cultured in a 37° C., 5% CO2 incubator for 5 days. 40 μL of CTG solution (Promega, Cat No. G7573) was added to each well and incubated in a 37° C., 5% CO2 incubator in the dark for 30 minutes. The luminescence value was read using an Envision multi-function microplate reader (Perkin Elmer, catalog number Envision 2104). The optical signal is proportional to the amount of ATP in the system, while the ATP content directly characterizes the number of viable cells in the system.

Experiment [2] has as its system HT-29 colorectal cancer cells. Put plainly: 2D antiproliferation on MSS HT-29 cells, CTG, 5 days. The class given is cell-based. As to conditions: Homo sapiens, 120 h, HT-29 MSS. The procedure:
The molecules of the invention were tested for their anti-proliferative activities on MSS tumor cells.
HT-29 colorectal cancer cells with MSS were cultured in a McCoy's 5A medium containing 10% FBS and 1% penicillin-streptomycin in a 37° C., 5% CO2 constant temperature incubator. 40 μL of cell suspension was added to each well of a 384-well microplate. […] of compounds with different concentrations were added to each well using Echo. The mixtures were cultured in a 37° C., 5% CO2 constant temperature incubator for 5 days. 40 μL of CTG solution (Promega, Cat No. G7573) was added to each well, and the mixture was incubated in a 37° C., 5% CO2 constant temperature incubator for 30 minutes in the dark. The luminescence value was read using an Envision multi-function microplate reader (Perkin Elmer, catalog number Envision 2104). The optical signal is proportional to the amount of ATP in the system, while the ATP content directly characterizes the number of viable cells in the system.

For the compound `CCc1c(N2CCN(C(=O)c3ncnc(C)c3O)CC2)c(=O)n2nc(-c3ccn4nccc4c3)nc2n1CC(=O)Nc1ccc(C(F)(F)F)cc1C` [P48], the IC50 in experiment [1] turned out to be 32 nM.

Regarding `CCc1c(N2CCN(C(=O)c3ncnc(C)c3O)CC2)c(=O)n2nc(-c3ccc4nncn4c3)nc2n1CC(=O)Nc1ccc(C(F)(F)F)cc1Cl` [P39], the IC50 in experiment [1] and in experiment [2] was more than 10000 nM in each case.

As to `CCc1c(N2CCN(C(=O)c3ncnc(C)c3O)CC2)c(=O)n2nc(-c3ccc4nccn4c3)nc2n1CC(=O)Nc1ccc(C(F)(F)F)cc1Cl` [P38], the IC50 in experiment [1] is 82 nM; in experiment [2], more than 10000 nM.

Consider `CCc1c(N2CCN(C(=O)c3cc(C)ncn3)CC2)c(=O)n2nc(-c3cc4c(s3)COC4)nc2n1CC(=O)Nc1ccc(C(F)(F)F)cc1Cl` [A2], for which, in experiment [1], the IC50 was 848 nM.

Turning to `CCc1c(N2CCN(C(=O)c3ncnc(C)c3O)CC2)c(=O)n2nc(-c3cc4c(s3)COC4)nc2n1CC(=O)Nc1ccc(-c2cccnc2)cc1Cl` [P61], the IC50 in experiment [1] worked out at 8850 nM.

For the compound `CCc1c(N2CCN(C(=O)c3ncnc(C)c3O)CC2)c(=O)n2nc(-c3ccc4nccn4c3)nc2n1CC(=O)Nc1ccc(C(F)(F)F)cc1F` [P46], the IC50 in experiment [1] is 452 nM; in experiment [2], more than 10000 nM.

As to `CCc1c(N2CCN(C(=O)c3ncnc(C)c3O)CC2)c(=O)n2nc(-c3cc4c(s3)COCC4)nc2n1CC(=O)Nc1ccc(C(F)(F)F)cc1Cl` [P40], in experiment [1], the half-inhibitory concentration (IC50) was determined as 113 nM.

For the compound `CCc1c(N2CCN(C(=O)c3ncnc(C)c3O)CC2)c(=O)n2nc(-c3cc4n(c3)CCOC4)nc2n1CC(=O)Nc1ccc(C(F)(F)F)cc1Cl` [P45], the half-maximal inhibitory concentration (IC50) is 54 nM in experiment [1] and more than 10000 nM in experiment [2].

The compound `CCc1c(N2CCN(C(=O)c3ncnc(C)c3O)CC2)c(=O)n2nc(-c3cn4cncc4s3)nc2n1CC(=O)Nc1ccc(C(F)(F)F)cc1C` [P64] registered an IC50 in experiment [1] of 530 nM.

The compound `CCc1c(N2CCN(C(=O)c3ncnc(C)c3O)CC2)c(=O)n2nc(-c3ncc(CO)s3)nc2n1CC(=O)Nc1ccc(C(F)(F)F)cc1Cl` [P43] yielded an IC50 in experiment [1] of 593 nM.

In experiment [1], `CCc1c(N2CCN(C(=O)c3ncnc(C)c3O)CC2)c(=O)n2nc(-c3ccc(=O)n(C)c3)nc2n1CC(=O)Nc1ccc(C(F)(F)F)cc1Cl` [A3, reference compound] registered a 50% inhibitory concentration (IC50) of 2000 nM.

`CCc1c(N2CCN(C(=O)c3ncnc(C)c3O)CC2)c(=O)n2nc(-c3cc4c(s3)COC4)nc2n1CC(=O)Nc1ccc(Cl)cc1Cl` [P26]: the IC50 in experiment [1] is 41 nM; in experiment [2], more than 10000 nM.

For `CCc1c(N2CCN(C(=O)c3ncnc(C)c3O)CC2)c(=O)n2nc(-c3cc4c(s3)COC4)nc2n1CC(=O)Nc1ccc(C(F)(F)F)c(F)c1C` [P30], the IC50 was 33 nM in experiment [1] and more than 10000 nM in experiment [2].

Turning to `CCc1c(N2CCN(C(=O)c3ncnc(C)c3O)CC2)c(=O)n2nc(-c3cnc(CO)s3)nc2n1CC(=O)Nc1ccc(C(F)(F)F)cc1Cl` [P35], the IC50 in experiment [1] is 199 nM; in experiment [2], more than 10000 nM.

With `CCc1c(N2CCN(C(=O)c3ncnc(C)c3O)CC2)c(=O)n2nc(-c3cnc(CO)s3)nc2n1CC(=O)Nc1ccc(C(F)(F)F)c2ccsc12` [P36], the IC50 is 561 nM in experiment [1] and more than 10000 nM in experiment [2].

For `CCc1c(N2CCN(C(=O)c3ncnc(C)c3O)CC2)c(=O)n2nc(-c3sc(CO)nc3C)nc2n1CC(=O)Nc1ccc(C(F)(F)F)cc1Cl` [P34], the figures for the IC50 in experiment [1] and in experiment [2] were 142 nM and more than 10000 nM, respectively.

Turning to `CCc1c(N2CCN(C(=O)c3ncnc(C)c3O)CC2)c(=O)n2nc(-c3cc4c(s3)COC4)nc2n1CC(=O)Nc1cc(F)c(C(F)(F)F)cc1C` [P31], the IC50 in experiment [1] is 49 nM; in experiment [2], more than 10000 nM.

Turning to `CCc1c(N2CCN(C(=O)c3ncnc(C)c3O)CC2)c(=O)n2nc(-c3cc4cn[nH]c4s3)nc2n1CC(=O)Nc1ccc(C(F)(F)F)cc1C` [P50], the half-inhibitory concentration (IC50) is 162 nM in experiment [1] and more than 10000 nM in experiment [2].

`[2H]C([2H])([2H])c1ncnc(C(=O)N2CCN(c3c(CC)n(CC(=O)Nc4ccc(C(F)(F)F)cc4Cl)c4nc(-c5cc6c(s5)COC6)nn4c3=O)CC2)c1O` [P68] came in with an IC50 in experiment [1] of 28 nM. In other words, the double-digit nanomolar range.

`CCc1c(N2CCN(C(=O)c3ncnc(C)c3O)CC2)c(=O)n2nc(-c3cc4cncnc4s3)nc2n1CC(=O)Nc1ccc(C(F)(F)F)cc1Cl` [P42]: the IC50 in experiment [1] is 620 nM; in experiment [2], more than 10000 nM.

`CCc1c(N2CCN(C(=O)c3ncnc(C)c3O)CC2)c(=O)n2nc(-c3cc4cncnc4[nH]3)nc2n1CC(=O)Nc1ccc(C(F)(F)F)cc1Cl` [P44]: the IC50 in experiment [1] and in experiment [2] was more than 10000 nM each time.

`CCc1c(N2CCN(C(=O)c3ncnc(C)c3O)CC2)c(=O)n2nc(-c3cc4cn[nH]c4s3)nc2n1CC(=O)Nc1ccc(C(F)(F)F)cc1F` [P51] came in with an IC50 in experiment [1] of 242 nM.

With `CCc1c(N2CCN(C(=O)c3ncnc(C)c3O)CC2)c(=O)n2nc(-c3cnn(S(C)(=O)=O)c3)nc2n1CC(=O)Nc1ccc(C(F)(F)F)cc1Cl` [P49], in experiment [1], the IC50 amounted to 574 nM.

Consider `CCc1c(N2CCN(C(=O)c3ncnc(C)c3O)CC2)c(=O)n2nc(-c3ccc4nccn4c3)nc2n1CC(=O)Nc1ccc(C(F)(F)F)cc1C` [P47], for which the IC50 in experiment [1] is 480 nM; in experiment [2] it was more than 10000 nM.

`[2H]C1([2H])N(C(=O)c2ncnc(C)c2O)C([2H])([2H])C([2H])([2H])N(c2c(CC)n(CC(=O)Nc3ccc(C(F)(F)F)cc3C)c3nc(-c4cc5c(s4)COC5)nn3c2=O)C1([2H])[2H]` [P70] showed an IC50 in experiment [1] of 34 nM.

Turning to `CCc1c(N2CCN(C(=O)c3ncnc(C)c3O)CC2)c(=O)n2nc(-c3ccn4nccc4c3)nc2n1CC(=O)Nc1ccc(C(F)(F)F)cc1Cl` [P37], the figures for the half-maximal inhibitory concentration (IC50) in experiment [1] and in experiment [2] were 46 nM and more than 10000 nM, respectively.

`CCc1c(N2CCN(C(=O)c3ncccc3O)CC2)c(=O)n2nc(-c3c[nH]c4ncncc34)nc2n1CC(=O)Nc1ccc(C(F)(F)F)cc1Cl` [P41]: the IC50 in experiment [1] was determined as 2080 nM; in experiment [2], 5590 nM.

For `CCc1c(N2CCN(C(=O)c3ncccc3O)CC2)c(=O)n2nc(C3=CCS(=O)(=O)CC3)nc2n1CC(=O)Nc1ccc(C(F)(F)F)cc1Cl` [P6], the figures for the IC50 in experiment [1] and in experiment [2] were 2060 nM and more than 10000 nM, respectively.

In experiment [1], `CCc1c(N2CCN(C(=O)c3ncnc(C)c3O)C3(CC3)C2)c(=O)n2nc(-c3cc4c(s3)COC4)nc2n1CC(=O)Nc1ccc(C(F)(F)F)cc1C` [P55] displayed an IC50 of 672 nM.

Regarding `CCc1ccc(NC(=O)Cn2c(CC)c(N3CCN(C(=O)c4ncnc(C)c4O)CC3)c(=O)n3nc(-c4cc5c(s4)COC5)nc23)c(C)c1` [P27], the concentration for half-maximal inhibition (IC50) in experiment [1] is 46 nM; in experiment [2], more than 10000 nM.

With `CCc1c(N2CCN(C(=O)c3ncnc(C)c3O)[C@H](C)C2)c(=O)n2nc(-c3cc4c(s3)COC4)nc2n1CC(=O)Nc1ccc(C(F)(F)F)cc1C` [P53], the half-inhibitory concentration (IC50) was 55 nM in experiment [1] and more than 10000 nM in experiment [2].

Turning to `CCc1c(N2CCN(C(=O)c3ncnc(C)c3O)CC2)c(=O)n2nc(-c3cc4c(s3)COC4)nc2n1CC(=O)Nc1ccc(C(F)(F)F)c2sccc12` [P56], the IC50 in experiment [1] turned out to be 36 nM.

In the case of `CCc1c(N2CC3CC(C2)N3C(=O)c2ncnc(C)c2O)c(=O)n2nc(-c3cc4c(s3)COC4)nc2n1CC(=O)Nc1ccc(C(F)(F)F)cc1C` [P54], the 50% inhibitory concentration (IC50) in experiment [1] is 2140 nM.

(Values after US20260217732A1, “WRN INHIBITOR” (SUZHOU PUHE BIOPHARMA CO., LTD., priority 2022, published 2026).)
